Source: patent US20160074301A1, “ANTI-AGING SKIN CARE COMPOSITIONS AND REGIMENS” (The Procter & Gamble Company, priority 2014, published 2016)

Columns and labels:
[1] = system: "Clear and Detox" module genes; assay: Eigengene of "Clear and Detox" co-expression module (FIG. 8); details: cultured human keratinocytes
skin barrier formation = assay: Eigengene analysis, skin barrier formation, treated cultured human keratinocytes; format: cell-based
[2] = system: "Repair and Rebuild" associated genes; assay: Eigengene of "Repair and Rebuild" co-expression module (FIG. 9); details: cultured human keratinocytes

## palmitoyl-lysine-threonine [Pal-KT]
[1]
  effect on "Clear and Detox" eigengene (FIG. 8): significantly up-regulates
Skin barrier formation
  successful aging effect in skin barrier formation: Effects relating to successful aging were also identified

## palmitoyl-lysine-threonine-threonine-lysine-serine [Pal-KTTKS]
[2]
  effect on "Repair and Rebuild" eigengene (FIG. 9): significantly up-regulate
